Key:
[1] = test system: HeLa; assay: MTS proliferation assay; type: cell-based, human; details: 72 h
Outline: (§1)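 Cells exposed 72 h under culture conditions to compound at 10, 3, 1 and 0.3 μM final, added in medium with max 5% DMSO. MTS reagent then added for a further 3 h and absorbance read at 492 nm.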

[2] = test system: Jurkat; assay: MTS proliferation assay; type: cell-based, human; details: 72 h
Outline: as §1

[3] = test system: Jily; assay: MTS proliferation assay; type: cell-based; details: 72 h
Outline: as §1

[4] = test system: MRC5; assay: MTS proliferation assay; type: cell-based; details: MRC5, 72 h
Outline: as §1

[5] = Hoechst 33342 nuclear staining; type: cell-based; details: for Hoechst 33342 nuclear staining score, H460: H460 cells; for Hoechst 33342 nuclear staining score, HeLa: HeLa cells; for Hoechst 33342 nuclear staining score, Jily: Jily cells; for Hoechst 33342 nuclear staining score, Jurkat: Jurkat cells; for Hoechst 33342 nuclear staining score, MRC5: MRC5 cells;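 for all read-outs here: apoptotic nuclei scored 0 none 1 weak under 50% of cells 2 strong over 50% of cells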
Outline: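 After a further 30 min incubation, plates were inspected on a standard inverted fluorescence microscope. The fraction of apoptotic nuclei and other apoptosis-specific morphology were scored as 0 for no activity, 1 for weak activity in less than 50% of the cells, and 2 for strong activity in more than 50% of the cells.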

SMILES | IC50 [3] | Hoechst 33342 nuclear staining score, H460 ([5]; conc 0.1) | Hoechst 33342 nuclear staining score, H460 ([5]; conc 0.3) | Hoechst 33342 nuclear staining score, H460 ([5]; conc 1) | Hoechst 33342 nuclear staining score, H460 ([5]; conc 3) | Hoechst 33342 nuclear staining score, HeLa ([5]; conc 0.1) | Hoechst 33342 nuclear staining score, HeLa ([5]; conc 0.3) | Hoechst 33342 nuclear staining score, HeLa ([5]; conc 1) | Hoechst 33342 nuclear staining score, HeLa ([5]; conc 3) | Hoechst 33342 nuclear staining score, Jily ([5]; conc 0.1) | Hoechst 33342 nuclear staining score, Jily ([5]; conc 0.3) | Hoechst 33342 nuclear staining score, Jily ([5]; conc 1) | Hoechst 33342 nuclear staining score, Jily ([5]; conc 3) | Hoechst 33342 nuclear staining score, Jurkat ([5]; conc 0.1) | Hoechst 33342 nuclear staining score, Jurkat ([5]; conc 0.3) | Hoechst 33342 nuclear staining score, Jurkat ([5]; conc 1) | Hoechst 33342 nuclear staining score, Jurkat ([5]; conc 3) | Hoechst 33342 nuclear staining score, MRC5 ([5]; conc 0.1) | Hoechst 33342 nuclear staining score, MRC5 ([5]; conc 0.3) | Hoechst 33342 nuclear staining score, MRC5 ([5]; conc 1) | other results
COc1cc(-c2cc(-c3cccnc3)cn2S(=O)(=O)/C=C/c2ccccc2)cc(OC)c1OC [Example 89] | > 1000 nM | 0 | 0 | 0 | 0 | 0 | 0 | 0 | 0 | 0 | 0 | 0 | 1 (weak activity comprising less than 50% of the cells) | 0 | 0 | 0 | 1 (weak activity comprising less than 50% of the cells) | 0 | 0 | 0 | IC50 [1]: > 1000 nM; IC50 [2]: > 1000 nM; IC50 [4]: > 1000 nM; Hoechst 33342 nuclear staining score, MRC5 ([5]; conc 3): 0; Hoechst 33342 nuclear staining score, PBLs ([5]; conc 0.1): 0; Hoechst 33342 nuclear staining score, PBLs ([5]; conc 0.3): 0; Hoechst 33342 nuclear staining score, PBLs ([5]; conc 1): 0; Hoechst 33342 nuclear staining score, PBLs ([5]; conc 3): 0
COc1cc(-c2cc(-c3cccnc3)cn2S(=O)(=O)c2c(Cl)cccc2Cl)cc(OC)c1OC [Example 85] | > 1000 nM | 0 | 0 | 0 | 0 | 0 | 0 | 0 | 0 | 0 | 0 | 0 | 0 | 0 | 0 | 0 | 0 | 0 | 0 | 0 | IC50 [1]: > 1000 nM; IC50 [2]: > 1000 nM; IC50 [4]: > 1000 nM; Hoechst 33342 nuclear staining score, MRC5 ([5]; conc 3): 0; Hoechst 33342 nuclear staining score, PBLs ([5]; conc 0.1): 0; Hoechst 33342 nuclear staining score, PBLs ([5]; conc 0.3): 0; Hoechst 33342 nuclear staining score, PBLs ([5]; conc 1): 0; Hoechst 33342 nuclear staining score, PBLs ([5]; conc 3): 0
COc1ccc(S(=O)(=O)n2cc(-c3ccc(N)nc3)cc2-c2cc(OC)c(OC)c(OC)c2)cc1 [Example 100, 4-(2-Aminopyrid-5-yl)-1-p-methoxyphenylsulfonyl-2-(3,4,5-trimethoxyphenyl)-pyrrole] | < 200 nM | 0 | 2 (strong activity comprising more than 50% of the cells) | 2 (strong activity comprising more than 50% of the cells) | 2 (strong activity comprising more than 50% of the cells) | 0 | 2 (strong activity comprising more than 50% of the cells) | 2 (strong activity comprising more than 50% of the cells) | 2 (strong activity comprising more than 50% of the cells) | 0 | 2 (strong activity comprising more than 50% of the cells) | 2 (strong activity comprising more than 50% of the cells) | 2 (strong activity comprising more than 50% of the cells) | 0 | 2 (strong activity comprising more than 50% of the cells) | 2 (strong activity comprising more than 50% of the cells) | 2 (strong activity comprising more than 50% of the cells) | 0 | 1 (weak activity comprising less than 50% of the cells) | 2 (strong activity comprising more than 50% of the cells) | IC50 ([1]; Homo sapiens): < 200 nM; IC50 ([2]; Homo sapiens): < 200 nM; IC50 ([4]; Homo sapiens): < 200 nM; Hoechst 33342 nuclear staining score, MRC5 ([5]; conc 3): 2 (strong activity comprising more than 50% of the cells); Hoechst 33342 nuclear staining score, PBLs ([5]; conc 0.1): 0; Hoechst 33342 nuclear staining score, PBLs ([5]; conc 0.3): 0; Hoechst 33342 nuclear staining score, PBLs ([5]; conc 1): 0; Hoechst 33342 nuclear staining score, PBLs ([5]; conc 3): 0
COc1ccc(S(=O)(=O)n2cc(CNc3ccc(N4CCOCC4)cc3)cc2-c2cc(OC)ccc2OC)cc1 [Example 95] | > 1000 nM | 0 | 0 | 0 | 2 (strong activity comprising more than 50% of the cells) | 0 | 0 | 0 | 2 (strong activity comprising more than 50% of the cells) | 0 | 0 | 0 | 2 (strong activity comprising more than 50% of the cells) | 0 | 0 | 0 | 2 (strong activity comprising more than 50% of the cells) | 0 | 0 | 0 | IC50 [1]: > 1000 nM; IC50 [2]: > 1000 nM; IC50 [4]: > 1000 nM; Hoechst 33342 nuclear staining score, MRC5 ([5]; conc 3): 0; Hoechst 33342 nuclear staining score, PBLs ([5]; conc 0.1): 0; Hoechst 33342 nuclear staining score, PBLs ([5]; conc 0.3): 0; Hoechst 33342 nuclear staining score, PBLs ([5]; conc 1): 0; Hoechst 33342 nuclear staining score, PBLs ([5]; conc 3): 0
COc1cc(-c2cc(CNc3ccc(-c4nnn[nH]4)cc3)cn2S(=O)(=O)c2ccc(C)cc2)cc(OC)c1OC [Example 73] | > 1000 nM | 0 | 0 | 0 | 2 (strong activity comprising more than 50% of the cells) | 0 | 0 | 0 | 0 | 0 | 0 | 0 | 1 (weak activity comprising less than 50% of the cells) | 0 | 0 | 0 | 2 (strong activity comprising more than 50% of the cells) | 0 | 0 | 0 | IC50 [1]: > 1000 nM; IC50 [2]: > 1000 nM; IC50 [4]: > 1000 nM; Hoechst 33342 nuclear staining score, MRC5 ([5]; conc 3): 0; Hoechst 33342 nuclear staining score, PBLs ([5]; conc 0.1): 0; Hoechst 33342 nuclear staining score, PBLs ([5]; conc 0.3): 0; Hoechst 33342 nuclear staining score, PBLs ([5]; conc 1): 0; Hoechst 33342 nuclear staining score, PBLs ([5]; conc 3): 0

Reference: patent publication US7612064B2, “Sulfopyrroles” (Takeda Pharmaceutical Company Limited, priority 2003, dated 2009)
